No end group written: not given here.
Columns and labels:
[1] = system: IDO; assay: IDO expression (immunoblotting) and kynurenine production in DCs; type: cell-based, mouse
Protocol: IDO expression and functional activity were assessed as described in Nat. Immunol. […] Generation, purification and activity of T reg cells Splenic CD4+ T-cells were cocultured with conidia-pulsed DCs for 5 days […] before flow cytometry or ELISPOT assay. 1-MT (Sigma-Aldrich) was used at […].
Cells were assessed for IDO protein expression by immunoblotting and for kynurenine production. Positive and negative controls consisted of IDO protein-expressing MC24 transfectants and mock-transfected MC22 cells, respectively (not shown in the figure).

[2] = system: TLN CD4+ T lymphocytes, neutrophils; assay: Proliferation of TLN cells and suppressive activity of CD4+CD25+ T reg cells from DC-treated HSCT mice; type: in vivo, mouse
Protocol: IDO expression and functional activity were assessed as described in Nat. Immunol. 2002; 3:1097-1101. Generation, purification and activity of T reg cells Splenic CD4+ T-cells were cocultured with conidia-pulsed DCs for 5 days […] before flow cytometry or ELISPOT assay. 1-MT (Sigma-Aldrich) was used at 2 μM. CD4+CD25+ and CD4+CD25− cells (>90% pure on FACS analysis) were separated by magnetic cell sorting from lung and TLN (J. Immunol. 2006; 176:1712-1723). For T reg cell inhibition, 5×10^4 TLN T reg cells were added to 3×10^5 CD4+CD25− cells, both from transplanted mice, stimulated with 3×10^4 autologous Aspergillus conidia-pulsed spDCs or with or 1.5×10^5 allogeneic spDCs from naïve donor mice for five days before H^3-thymidine labeling. Purified peritoneal CD 11b+Gr−1+PMN (>98% pure on FACS analysis) (2×10^6) were exposed to resting conidia in the presence of 4×10^5 CD4+CD25+ for 60 min for oxidant production or 24 hours for cytokine production (J. Immunol. 2006; 176:1712-1723).
Mice received twice intraperitoneal injections of DCs, at weekly interval, starting a day after HSCT and infected a week after the last DC administration. Three days later, lung homogenates, CD4+ T cells (>98% on FACS analysis), CD4+CD25− (>98%) or CD4+CD25+ (>82%) purified with the specific Miltenyi Biotec isolation kits were assessed for pattern of pro- and anti-inflammatory (TNF-a/IL-10 in lung homogenates), Th1 (IFN-γ) or Th2 (IL-4) cytokine production by CD4+ cells stimulated with Aspergillus-pulsed DCs (Blood. 2003; 102:3807-3814) frequency of CD25+ IL-10^+ TGF-β+ T reg cells, lymphoproliferation and gene expression by RT-PCR. For proliferation, TLN CD4+ T lymphocytes were plated (10^5 cells/well) with 10^5 cells/well irradiated allogeneic splenocytes or autologous spDCs pulsed with conidia or 10 μg/mL Con A for five days before H^3-thymidine labeling.
(A) Murine CD4+ T lymphocytes from TLN of transplanted mice were stimulated with irradiated allogeneic splenocytes, autologous splenic DCs stimulated with conidia or Concanavalin A. T cell proliferation was assessed in a 5-day MLR assay and measured by H^3thymidine incorporation over the last 8 hours, (*) P<0.05, transplanted versus donor mice. (**) P<0.05, T cell- and/or DC-treated mice versus untreated mice. (***) P<0.05, Thymosin alpha 1-treated DCs versus untreated DCs. […] (D) Peritoneal neutrophils (PMN) were exposed to resting conidia in the presence of lung CD4+CD25+ T cells from FL-DCtreated (a) or Thymosin alpha 1-GM-DC-treated mice (b) for 60 min (for oxidant production, expressed as nanomoles O2-/10^6 cells) or 24 hours for cytokine production (pg/mL by ELISA). […]

[3] = mice receiving Thymosin alpha 1-treated GM-DCs

Thymosin alpha 1: naturally occurring thymic peptide; supplied as purified, endotoxin-free sterile lyophilized acetylated polypeptide from SciClone Pharmaceuticals (Ac-SDAAVDTSSEITTKDLKEKKEVVEEAEN; UniProt P06454 2-29, looked up)
induction of IDO protein and function in DCs from TLR9-/- or IFN-aβR-/- mice ([1]; DCs from knockout mice): not observed
induction of functional IDO (protein, tryptophan to kynurenine conversion) ([1]; FL-DCs and GM-DCs): Induction of functional IDO by Thymosin alpha 1 in both FL-DCs and GM-DCs was confirmed
TNF-a and oxidant production of neutrophils in the presence of lung T reg cells ([2]; T reg fraction induced by Thymosin alpha 1-treated GM-DCs): significantly inhibited
alloreactivity and antigen-specific responses of CD4+CD25- T cells in the presence of CD4+CD25+ T cells ([2]; T reg from mice receiving Thymosin alpha 1-treated GM-DCs): both reduced
alloreactivity (proliferation of TLN cells to allogeneic splenocytes) [2, 3]: decreased
pathogen-specific reactivity (proliferation to Aspergillus conidia) [2, 3]: recovered

— patent US8022036B2, “Use of thymosin alpha 1 for the treatment of immunological diseases” (Sigma-Tau Industrie Farmaceutiche Riunite S.p.A., priority 2006, dated 2011)
